According to US20150291598A1 (NOVARTIS AG, priority 2012, published 2015):

Test system: P. falciparum (NF54 or 3D7 strain)
Assay: Assay for P. falciparum proliferation in infected human blood cells (SYBR Green)
Format: cell-based, Plasmodium falciparum
Details: Plasmodium falciparum, 3D7|NF54, Erythrocyte, in Homo sapiens, 72 h, NF54 or 3D7 infected human erythrocytes, 72 hours; read-out: EC50 (nM), inhibitory efficacy in delaying P. falciparum proliferation in infected human blood cells
Summary of the method: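 NF54 or 3D7 parasites in O+ human erythrocytes at 2.5% hematocrit and 0.3% parasitemia final, exposed to compounds 72 h at 37 °C under 93% N2/4% CO2/3% O2.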

Row | EC50 | SMILES
1 | 462 nM | CN(C(=O)c1cn2c(-c3ccc(-n4ccnc4)cc3)cnc2cn1)c1ccc(C#N)cc1 [Compound 146]
2 | 1360 nM | CN(C(=O)c1cn2c(-c3ccc(S(N)(=O)=O)cc3)cnc2cn1)c1ccc(C#N)cc1 [Compound 148]

Same assay, conditions: Plasmodium falciparum, Erythrocyte, 72 h, NF54 or 3D7 infected human erythrocytes, 72 hours; read-out: EC50 (nM), inhibitory efficacy in delaying P. falciparum proliferation in infected human blood cells

Row | EC50 | SMILES
3 | 226 nM | CN(C(=O)c1cn2c(-c3ccc(C(F)(F)F)cc3)cnc2cn1)c1cccc(F)c1 [Compound 137, N-(3-fluorophenyl)-N-methyl-3-[4-(trifluoromethyl)phenyl]imidazo[1,2-a]pyrazine-6-carboxamide]
4 | 849 nM | CN(C(=O)c1cn2c(-c3ccc(OCC(F)(F)F)cc3)cnc2cn1)c1ccc(C#N)cc1 [Compound 138, N-(4-cyanophenyl)-N-methyl-3-[4-(2,2,2-trifluoroethoxy)phenyl]imidazo[1,2-a]pyrazine-6-carboxamide]
5 | 1160 nM | COc1ccc(N(C)C(=O)c2cn3c(-c4ccc(C(F)(F)F)cc4)cnc3cn2)cc1 [Compound 139, N-(4-methoxyphenyl)-N-methyl-3-[4-(trifluoromethyl)phenyl]imidazo[1,2-a]pyrazine-6-carboxamide]
6 | 436 nM | CN(C(=O)c1cn2c(-c3ccc(C(F)(F)F)cc3F)cnc2cn1)c1ccc(C#N)cc1 [Compound 140, N-(4-cyanophenyl)-3-[2-fluoro-4-(trifluoromethyl)phenyl]-N-methylimidazo[1,2-a]pyrazine-6-carboxamide]
7 | 433 nM | CN(C(=O)c1cn2c(-c3ccc4c(ccn4C)c3)cnc2cn1)c1ccc(Cl)cc1 [Compound 141, N-(4-chlorophenyl)-N-methyl-3-(1-methyl-1H-indol-5-yl)imidazo[1,2-a]pyrazine-6-carboxamide]
8 | 202 nM | CN(C(=O)c1cn2c(-c3ccc(OC(F)F)cc3)cnc2cn1)c1ccc(F)c(F)c1 [Compound 142, 3-[4-(difluoromethoxy)phenyl]-N-(3,4-difluorophenyl)-N-methylimidazo[1,2-a]pyrazine-6-carboxamide]
9 | 1560 nM | CN(C(=O)c1cn2c(-c3ccc4[nH]cnc4c3)cnc2cn1)c1ccc(C#N)cc1 [Compound 143, 3-(1H-1,3-benzodiazol-5-yl)-N-(4-cyanophenyl)-N-methylimidazo[1,2-a]pyrazine-6-carboxamide]
10 | 366 nM | CN(C(=O)c1cn2c(-c3ccc(-n4cccn4)cc3)cnc2cn1)c1ccc(F)c(F)c1 [Compound 144, N-(3,4-difluorophenyl)-N-methyl-3-[4-(1H-pyrazol-1-yl)phenyl]imidazo[1,2-a]pyrazine-6-carboxamide]
11 | 648 nM | CN(C(=O)c1cn2c(-c3ccc4[nH]ncc4c3)cnc2cn1)c1ccc(C#N)cc1 [Compound 145, N-(4-cyanophenyl)-3-(1H-indazol-5-yl)-N-methylimidazo[1,2-a]pyrazine-6-carboxamide]
12 | 564 nM | CN(C(=O)c1cn2c(-c3ccc(C(F)(F)F)cc3)cnc2cn1)c1ccc(C#N)nc1 [Compound 147, N-(6-cyanopyridin-3-yl)-N-methyl-3-[4-(trifluoromethyl)phenyl]imidazo[1,2-a]pyrazine-6-carboxamide]
13 | 1520 nM | CN(C(=O)c1cn2c(-c3ccc4nn(C)cc4c3)cnc2cn1)c1ccc(C#N)cc1 [Compound 149, N-(4-cyanophenyl)-N-methyl-3-(2-methyl-2H-indazol-5-yl)imidazo[1,2-a]pyrazine-6-carboxamide]
14 | 3590 nM | Cc1cc(C(F)(F)F)ccc1-c1cnc2cnc(C(=O)N(C)c3ccc(C#N)cc3)cn12 [Compound 150, N-(4-cyanophenyl)-N-methyl-3-[2-methyl-4-(trifluoromethyl)phenyl]imidazo[1,2-a]pyrazine-6-carboxamide]
15 | 673 nM | CN(C(=O)c1cn2c(-c3ccc(-n4cccn4)cc3)cnc2cn1)c1ccc(F)cc1 [Compound 151, N-(4-fluorophenyl)-N-methyl-3-[4-(1H-pyrazol-1-yl)phenyl]imidazo[1,2-a]pyrazine-6-carboxamide]
16 | 3170 nM | CC(C)S(=O)(=O)c1ccc(-c2cnc3cnc(C(=O)N(C)c4ccc(C#N)cc4)cn23)cc1 [Compound 152, N-(4-cyanophenyl)-N-methyl-3-[4-(propane-2-sulfonyl)phenyl]imidazo[1,2-a]pyrazine-6-carboxamide]
17 | 2060 nM | CN(C(=O)c1cn2c(-c3ccc(F)cc3)cnc2cn1)c1ccc(C#N)cc1 [Compound 153, N-(4-cyanophenyl)-3-(4-fluorophenyl)-N-methylimidazo[1,2-a]pyrazine-6-carboxamide]
18 | 2690 nM | CN(C(=O)c1cn2c(-c3ccc4cn[nH]c4c3)cnc2cn1)c1ccc(C#N)cc1 [Compound 154, N-(4-cyanophenyl)-3-(1H-indazol-6-yl)-N-methylimidazo[1,2-a]pyrazine-6-carboxamide]
19 | 2390 nM | CN(C(=O)c1cn2c(-c3ccc(Cl)c(C#N)c3)cnc2cn1)c1ccc(C#N)cc1 [Compound 155, 3-(4-chloro-3-cyanophenyl)-N-(4-cyanophenyl)-N-methylimidazo[1,2-a]pyrazine-6-carboxamide]

Row | EC50 | SMILES
20 | 391 nM | CC(C)c1nc(-c2cnc3cnc(C(=O)N(C)c4ccc(C#N)cc4)cn23)cs1 [Compound 156, N-(4-cyanophenyl)-N-methyl-3-[2-(propan-2-yl)-1,3-thiazol-4-yl]imidazo[1,2-a]pyrazine-6-carboxamide]
21 | 2010 nM | CN(C(=O)c1cn2c(-c3ccc4ncccc4c3)cnc2cn1)c1ccc(C#N)cc1 [Compound 157, N-(4-cyanophenyl)-N-methyl-3-(quinolin-6-yl)imidazo[1,2-a]pyrazine-6-carboxamide]
22 | 2050 nM | CN(C(=O)c1cn2c(-c3ccc(C(=O)NC4CC4)cc3)cnc2cn1)c1ccc(C#N)cc1 [Compound 158, N-(4-cyanophenyl)-3-[4-(cyclopropylcarbamoyl)phenyl]-N-methylimidazo[1,2-a]pyrazine-6-carboxamide]
23 | 368 nM | CN(C)c1ccc(-c2cnc3cnc(C(=O)N(C)c4ccc(F)c(F)c4)cn23)cc1 [Compound 159, N-(3,4-difluorophenyl)-3-[4-(dimethylamino)phenyl]-N-methylimidazo[1,2-a]pyrazine-6-carboxamide]
24 | 1750 nM | Cc1cc(C)n(-c2ccc(-c3cnc4cnc(C(=O)N(C)c5ccc(C#N)cc5)cn34)cc2)n1 [Compound 160, N-(4-cyanophenyl)-3-[4-(3,5-dimethyl-1H-pyrazol-1-yl)phenyl]-N-methylimidazo[1,2-a]pyrazine-6-carboxamide]
25 | 1470 nM | CN(C(=O)c1cn2c(-c3ccc(C(N)=O)cc3)cnc2cn1)c1ccc(Cl)nc1 [Compound 161, 3-(4-carbamoylphenyl)-N-(6-chloropyridin-3-yl)-N-methylimidazo[1,2-a]pyrazine-6-carboxamide]
26 | 318 nM | CC(C)Oc1ccc(-c2cnc3cnc(C(=O)N(C)c4ccc(C#N)cc4)cn23)cc1 [Compound 162, N-(4-cyanophenyl)-N-methyl-3-[4-(propan-2-yloxy)phenyl]imidazo[1,2-a]pyrazine-6-carboxamide]
27 | 2630 nM | Cc1nnc(-c2ccc(-c3cnc4cnc(C(=O)N(C)c5ccc(C#N)cc5)cn34)cc2)o1 [Compound 163, N-(4-cyanophenyl)-N-methyl-3-[4-(5-methyl-1,3,4-oxadiazol-2-yl)phenyl]imidazo[1,2-a]pyrazine-6-carboxamide]
28 | 961 nM | CN(C)c1ccc(-c2cnc3cnc(C(=O)N(C)c4ccc(S(C)(=O)=O)cc4)cn23)cc1 [Compound 164, 3-[4-(dimethylamino)phenyl]-N-(4-methanesulfonylphenyl)-N-methylimidazo[1,2-a]pyrazine-6-carboxamide]
29 | 4610 nM | CN(C(=O)c1cn2c(-c3ccc(C4NC(=O)NC4=O)cc3)cnc2cn1)c1ccc(C#N)cc1 (stereo not drawn) [Compound 165, N-(4-cyanophenyl)-3-[4-(2,5-dioxoimidazolidin-4-yl)phenyl]-N-methylimidazo[1,2-a]pyrazine-6-carboxamide]
30 | 206 nM | COC(=O)c1ccc(-c2cnc3cnc(C(=O)N(C)c4ccc(C#N)cc4)cn23)cc1 [Compound 166, methyl 4-{6-[(4-cyanophenyl)(methyl)carbamoyl]imidazo[1,2-a]pyrazin-3-yl}benzoate]
31 | 4870 nM | CN(C(=O)c1cn2c(-c3ccc4cnccc4c3)cnc2cn1)c1ccc(C#N)cc1 [Compound 167, N-(4-cyanophenyl)-3-(isoquinolin-6-yl)-N-methylimidazo[1,2-a]pyrazine-6-carboxamide]
32 | 558 nM | CN(C(=O)c1cn2c(-c3ccc4c(=O)[nH]ccc4c3)cnc2cn1)c1ccc(C#N)cc1 [Compound 168, N-(4-cyanophenyl)-N-methyl-3-(1-oxo-1,2-dihydroisoquinolin-6-yl)imidazo[1,2-a]pyrazine-6-carboxamide]
33 | 497 nM | CN(C(=O)c1cn2c(-c3ccc(C(F)(F)F)c(F)c3)cnc2cn1)c1ccc(C#N)cc1 [Compound 169, N-(4-cyanophenyl)-3-[3-fluoro-4-(trifluoromethyl)phenyl]-N-methylimidazo[1,2-a]pyrazine-6-carbox]
34 | 4070 nM | CCCOc1ccc(-c2cnc3cnc(C(=O)N(C)c4ccc(C#N)cc4)cn23)cn1 [Compound 170, N-(4-cyanophenyl)-N-methyl-3-(6-propoxypyridin-3-yl)imidazo[1,2-a]pyrazine-6-carboxamide]
35 | 4010 nM | CN(C(=O)c1cn2c(-c3ccc(C(F)(F)F)cc3)cnc2cn1)c1ccccc1C(F)(F)F [Compound 171, N-methyl-N-[2-(trifluoromethyl)phenyl]-3-[4-(trifluoromethyl)phenyl]imidazo[1,2-a]pyrazine-6-carboxamide]
36 | 1130 nM | CN(C(=O)c1cn2c(-c3ccc(C(N)=O)cc3)cnc2cn1)c1ccc(S(C)(=O)=O)cc1 [Compound 172, 3-(4-carbamoylphenyl)-N-(4-methanesulfonylphenyl)-N-methylimidazo[1,2-a]pyrazine-6-carboxamide]
